Measurements: patent US12116388B2, “Amylin receptor agonists” (Novo Nordisk A/S, priority 2022, dated 2024)
Where two headings read alike, the source gives them in different places. Starred links: 1 amine or outer side, 2 acyl side, 3 side chain; linkers in the order of their positions; H or OH if unused. Positions of bridges follow the written chain, without caps; N, C: chain ends. Residues, ends and D or L forms follow the SMILES beside them. *: point of attachment. C20 diacid = O=C(O)CCCCCCCCCCCCCCCCCCC(=O)*; C18 diacid = O=C(O)CCCCCCCCCCCCCCCCC(=O)*; γGlu = O=C(O)[C@H](CCC(=O)[*:2])N[*:1]

Assays:
[1] = biological target: T1, human calcitonin receptor (hCTR) (Homo sapiens, UniProt P30988); experiment: Human calcitonin receptor (hCTR) in vitro potency assay, CRE-luciferase reporter in BHK cells; format: cell-based; settings: BHK hCTR/CRE-Luc cells, 3 hours incubation, assay buffer with 1% ovalbumin; read-out: hCalcR potency, EC50
T1 construct: host or cells: BHK (Baby Hamster Kidney), Hollex-1 cell line
T1 sequence (P30988 25-474): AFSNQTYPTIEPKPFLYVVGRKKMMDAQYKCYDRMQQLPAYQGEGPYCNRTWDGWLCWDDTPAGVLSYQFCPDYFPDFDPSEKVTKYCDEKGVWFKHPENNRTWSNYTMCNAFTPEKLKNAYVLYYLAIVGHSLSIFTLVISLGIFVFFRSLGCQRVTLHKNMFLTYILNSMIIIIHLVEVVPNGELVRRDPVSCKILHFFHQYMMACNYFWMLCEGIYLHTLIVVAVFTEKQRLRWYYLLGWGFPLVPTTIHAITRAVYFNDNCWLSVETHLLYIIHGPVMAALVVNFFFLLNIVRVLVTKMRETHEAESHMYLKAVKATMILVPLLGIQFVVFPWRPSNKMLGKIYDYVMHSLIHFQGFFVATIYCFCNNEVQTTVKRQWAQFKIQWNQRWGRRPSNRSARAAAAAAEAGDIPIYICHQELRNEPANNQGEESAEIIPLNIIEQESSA
Summary of the method: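 Luciferase signal from a CRE reporter served as the cAMP read-out after 3 h, 37 °C exposure to compound. Cells were stably transfected BHK expressing hCTR, and the buffer was phenol-red-free DMEM with 10 mM HEPES and 1% ovalbumin. Compounds were tested as 7-point, 7-fold dilutions, often from about 10 nM.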

[2] = Oral pharmacokinetic profiles in Beagle dogs (SNAC tablets); format: in vivo; settings: oral tablet: 3 mg compound, 300 mg SNAC, 7.7 mg magnesium stearate; for half-life: male, dog, plasma, read-out: T½ (converted)
Description: To be able to evaluate oral exposure following tablet dosing, tablet compositions comprising the test substance and SNAC (sodium N-(8-(2-hydroxybenzoyl)amino)caprylate) were prepared by mixing test substance with roller compacted SNAC and magnesium stearate as, e.g., described in WO 2019/149880.
This assay was performed to measure the oral bioavailability of a compound. The assay determined the exposure of test compound following oral administration in Beagle dogs as described by relevant pharmacokinetic parameters and plasma concentration curves.
Preparation of tablets for oral administration: tablets containing test compound used for the assay described herein were immediate release SNAC-based tablets. The test compound was spray-dried as neutral sodium salt (pH 7-8). Dry granulation was carried out by roller compaction on a Gerteis MINI-PACTOR. Tablets containing 3 mg test compound, 300 mg sodium N-(8-(2-hydroxybenzoyl)amino)caprylate (SNAC) and 7.7 mg magnesium stearate were produced on at Kilian Style One using 7.2×12 mm punches.
Determination of the absorption following oral administration: eight (8) male Beagle dogs, 1 to 8 years of age and weighing approximately 10-15 kg at the start of the studies, were used. The dogs were group-housed in pens (12 hours light:12 hours dark), and fed individually and restrictedly once daily with Royal Canin Medium Adult dog (Royal Canin Products, China Branch, or Brogaarden A/S, Denmark). Exercise and group social were permitted daily, whenever possible. The dogs were used for repeated pharmacokinetic studies with a suitable wash-out period between successive dosing. An appropriate acclimatisation period was given prior to initiation of the first pharmacokinetic study. All handling, dosing and blood sampling of the animals were performed by trained and skilled staff. Before the studies the dogs were fasted overnight and from 0 to 4 h after dosing. Besides, the dogs were restricted to water 1 hour before dosing until 4 hours after dosing, but otherwise had ad libitum access to water during the whole period.
Tablets containing the test compound were administered in the following manner: 10 min prior to tablet administration the dogs were dosed subcutaneously with approximately 3.2 nmol/kg of glucagon. The tablets were placed in the back of the mouth of the dog to prevent chewing. The mouth was then closed, and 10 mL of tap water was given by a syringe to facilitate swallowing of the tablet. Blood was sampled at predefined time points for up till 288 hours after dosing to adequately cover the full plasma concentration-time absorption profile of the compound. For each blood sampling time point approximately 1.2 mL of whole blood was collected in a 1.5 mL EDTA coated tube, and the tube was gently turned to allowing mixing of the sample with the EDTA. Then, the blood samples were kept on ice until centrifugation (4 min, 4° C., 4000 rpm). Plasma was pipetted into Micronic tubes on dry ice and kept at −20° C. until analysis. Blood samples were taken as appropriate, for example from a venflon in the cephalic vein in the front leg for the first 2 hours and then with syringe from the jugular vein for the rest of the time points (the first few drops were allowed to drain from the venflon to avoid heparin saline from the venflon in the sample).
Bioanalysis was carried out as follows: plasma concentrations of test compound were assayed by plasma protein precipitation and analysed by liquid chromatography-mass spectrometry (LC-MS). Calibrators were prepared by spiking blank dog plasma with analytes to reach the final concentrations in the range typically from 0.5 to 200 nM. Calibrators, plasma blanks or study samples were prepared for LC-MS by protein precipitation by adding 3 volumes of ethanol followed by centrifugation at 4000 rpm at 4° C. for 1 h. The supernatant was diluted with 2 volumes of Milli-Q water containing 0.1% formic acid before injection on the LC-MS system. […]

[3] = endogenous amylin, background statement; cited from earlier work

CC[C@H](C)[C@H](NC(=O)[C@@H]1CCCN1C(=O)CNC(=O)[C@H](Cc1ccccc1)NC(=O)[C@H](Cc1c[nH]cn1)NC(=O)[C@H](Cc1c[nH]cn1)NC(=O)[C@H](CC(C)C)NC(=O)[C@H](Cc1ccccc1)NC(=O)[C@H](CCC(=O)O)NC(=O)[C@H](C)NC(=O)[C@H](CC(C)C)NC(=O)[C@H](CCCNC(=N)N)NC(=O)[C@H](C)NC(=O)[C@@H](NC(=O)[C@H](CCC(N)=O)NC(=O)[C@H](C)NC(=O)[C@@H](NC(=O)[C@H](CO)NC(=O)[C@H](CC(C)C)NC(=O)[C@H](CO)NC(=O)CNC(=O)[C@H](C)NC(=O)CC[C@H](NC(=O)CCCCCCCCCCCCCCCCC(=O)O)C(=O)O)[C@@H](C)O)[C@@H](C)O)C(=O)N[C@@H](CC(C)C)C(=O)N1CCC[C@H]1C(=O)N1CCC[C@H]1C(=O)N[C@H](C(=O)N[C@@H](CC(=O)O)C(=O)N[C@H](C(=O)NCC(=O)N[C@@H](CO)C(=O)N[C@@H](CCC(=O)O)C(=O)N[C@H](C(=O)N1CCC[C@H]1C(N)=O)[C@@H](C)O)C(C)C)[C@@H](C)O [Compound 15, N^1-[(4S)-4-carboxy-4-(17-carboxyheptadecanoylamino)butanoy]-[Ala1,Gly2,Ser3,Leu4,Ser5,Ala7,Gln8,Ala10,Glu14,His17,Pro25,Pro28,Pro29,Asp31,Glu35,Pro37],des-(19-22)-human amylin] ({C18 diacid-γGlu}-AGSLSTAQTARLAEFLHHFGPILPPTDVGSETP-NH2)
EC50 [1]: 1.01 pM
half-life [2]: 85.9 h
AUC/D [2]: 21.07 kg·h/L
Cmax/D [2]: 0.29 kg/L

CC[C@H](C)[C@H](NC(=O)[C@@H]1CCCN1C(=O)CNC(=O)[C@H](Cc1ccccc1)NC(=O)[C@H](CC(N)=O)NC(=O)[C@H](CC(N)=O)NC(=O)[C@H](CO)NC(=O)[C@H](CO)NC(=O)[C@H](Cc1c[nH]cn1)NC(=O)[C@H](CCCNC(=N)N)NC(=O)[C@H](CC(C)C)NC(=O)[C@H](Cc1ccccc1)NC(=O)[C@H](CCC(=O)O)NC(=O)[C@H](C)NC(=O)[C@H](CC(C)C)NC(=O)[C@H](CCCNC(=N)N)NC(=O)[C@H](CCC(N)=O)NC(=O)[C@@H](NC(=O)[C@H](C)NC(=O)[C@@H]1CSSC[C@H](NC(=O)[C@H](CCCCN)NC(=O)CC[C@H](NC(=O)CCCCCCCCCCCCCCCCCCC(=O)O)C(=O)O)C(=O)N[C@@H](CC(N)=O)C(=O)N[C@@H]([C@@H](C)O)C(=O)N[C@@H](C)C(=O)N[C@@H]([C@@H](C)O)C(=O)N1)[C@@H](C)O)C(=O)N[C@@H](CC(C)C)C(=O)N1CCC[C@H]1C(=O)N1CCC[C@H]1C(=O)N[C@H](C(=O)N[C@@H](CCC(N)=O)C(=O)N[C@H](C(=O)NCC(=O)N[C@@H](CO)C(=O)N[C@@H](CC(N)=O)C(=O)N[C@H](C(=O)N1CCC[C@H]1C(N)=O)[C@@H](C)O)C(C)C)[C@@H](C)O [Compound 1, N^1Alpha-[(4S)-4-carboxy-4-(19-carboxynonadecanoylamino)butanoyl]-[Glu14,Arg17,Pro25,Pro28,Pro29,Gln31,Pro37]-human amylin, reference compound] ({C20 diacid-γGlu}-KCNTATCATQRLAEFLRHSSNNFGPILPPTQVGSNTP-NH2; disulfide 2-7)
Cmax/D [2]: 0.057 kg/L

CC[C@H](C)[C@H](NC(=O)[C@@H]1CCCN1C(=O)CNC(=O)[C@H](Cc1ccccc1)NC(=O)[C@H](CC(N)=O)NC(=O)[C@H](CC(=O)O)NC(=O)[C@H](CO)NC(=O)[C@H](CO)NC(=O)[C@H](Cc1c[nH]cn1)NC(=O)[C@H](Cc1c[nH]cn1)NC(=O)[C@H](CC(C)C)NC(=O)[C@H](Cc1ccccc1)NC(=O)[C@H](CCC(=O)O)NC(=O)[C@H](C)NC(=O)[C@H](CC(C)C)NC(=O)[C@H](CCCNC(=N)N)NC(=O)[C@H](C)NC(=O)[C@@H](NC(=O)[C@H](CCC(N)=O)NC(=O)[C@H](C)NC(=O)[C@@H](NC(=O)[C@H](CO)NC(=O)[C@H](CC(C)C)NC(=O)[C@H](Cc1c[nH]cn1)NC(=O)[C@H](CO)NC(=O)[C@H](C)NC(=O)CC[C@H](NC(=O)CCCCCCCCCCCCCCCCCCC(=O)O)C(=O)O)[C@@H](C)O)[C@@H](C)O)C(=O)N[C@@H](CC(C)C)C(=O)N1CCC[C@H]1C(=O)N1CCC[C@H]1C(=O)N[C@H](C(=O)N[C@@H](CC(=O)O)C(=O)N[C@H](C(=O)NCC(=O)N[C@@H](CO)C(=O)N[C@@H](CC(N)=O)C(=O)N[C@H](C(=O)N1CCC[C@H]1C(N)=O)[C@@H](C)O)C(C)C)[C@@H](C)O [Compound 2, N^1-[(4S)-4-carboxy-4-(19-carboxynonadecanoylamino)butanoyl]-[Ala1,Ser2,His3,Leu4,Ser5,Ala7,Gln8,Ala10,Glu14,His17,Asp21,Pro25,Pro28,Pro29,Asp31,Pro37]-human amylin] ({C20 diacid-γGlu}-ASHLSTAQTARLAEFLHHSSDNFGPILPPTDVGSNTP-NH2)
EC50 [1]: 1.31 pM
half-life [2]: 146 h
AUC/D [2]: 14.06 kg·h/L
Cmax/D [2]: 0.15 kg/L

amylin (KCNTATCATQRLANFLVHSSNNFGAILSSTNVGSNTY; listed as Homo sapiens) [Endogenous amylin, 37-amino acid long polypeptide hormone co-secreted with insulin from the pancreatic beta-cell]
half-life [3]: 0.25 to 0.333 h
